Source: patent US20170000784A1, “Autophagy Inhibitors” (priority 2013, published 2017)
“Also recorded” adds a separate entry of the source. Like-named read-outs stand apart in the source and are kept apart here.

Tests used:
Type in all cases: cell-based
[1] = tested on: UACC-3291 melanoma cell line; assay: Cell viability (IC50) screen, CellTiter Glo, UACC-3291; conditions: Homo sapiens
Description: (§1) U2OS cells were seeded at 500 cells per well in 5A McCoy's with 10% FBS in 96-well clear bottom, black-walled tissue culture plates. All melanoma cell lines (A375, UACC-91, UACC-257, UACC-502, UACC-903, UACC-1308, UACC-1940, UACC-2534, and UACC-3291) were seeded at 5,000 cells per well in RPMI 1640 with 10% FBS in 96-well clear bottom, black-walled tissue culture plates. After 24 hour incubation, cells were treated with VATG compounds in triplicate with a 10-point half log dose response from […] for 24 and 48 hours. Medium was removed and 2× CellTiter Glo (Promega, G7571) reagent mixed 1:1 with Opti-MEM (Invitrogen, 31985062) was added at 100 μL per well and incubated at room temperature for 15 minutes while rocking. 75 μL per well was moved to a white-walled 96-well plate and luminescence quantified using the 96 LUM program on an EnVision plate reader (PerkinElmer) and exported for analysis. All triplicate data points were averaged and luminescent readings for each treatment were normalized to vehicle control for change in viability. Dose response curves were input into SigmaPlot for IC50 calculations (Systat Software Inc).

U2OS cells = assay: Transmission electron microscopy of lysosomal vesicles; conditions: 3 μM for 3 hours, FIG. 12B
Description: U2OS cells were seeded in 10 cm plates in 5A McCoy's with 10% FBS at 1×10^6 cells per plate. After 24 hours incubation, cells were treated with DMSO (vehicle control), CQ (3 or 100 μM), quinicrine (3 μM), VATG-027 (3 μM), or VATG-032 (3 μM) for three hours. Following, cells were trypsinized, washed, pelleted, and resuspended in 2% glutaraldehyde fixative (Sigma, G5882). Cell pellets were embedded in 2% agarose, post-fixed in osmium tetroxide, and dehydrated with an acetone series. Cell samples were infiltrated and embedded in Poly/Bed 812 resin and polymerized at 60° C. for 24 hours. Ultrathin sections of 70 nm were generated with a Power Tome XL (Boeckeler Instruments) and placed on copper grids. Sections were examined using a JEOL 100Cx Transmission Electron Microscope at 100 kV. Lysosomal structures were identified by a single membrane structure lacking cytosolic components (FIG. 12). Transmission electron microscopy services were performed by Michigan State University Center for Advanced Microscopy (East Lansing, Mich.).
To test the theory, lysosomal turnover was first evaluated by visualizing lysosomes using transmission electron microscopy (TEM). U2OS cells were initially treated with a CQ concentration above the effective dose (100 μM) for 3 hours as a positive control, and were then subsequently fixed and imaged. […] Once this phenotype was established, cells were treated with a lower concentration (3 μM) of CQ to compare each compound at the same concentration.

[2] = tested on: UACC-91 melanoma cell line; assay: Cell viability (IC50) screen, CellTiter Glo, UACC-91; conditions: Homo sapiens
Description: as §1

[3] = tested on: lysosomes (LAMP1, LysoTracker Red) in U2OS cells; assay: Lysosome analysis by fluorescent microscopy (LAMP1 / LysoTracker Red); conditions: 3 μM for 3 hours; for LysoTracker Red staining: LysoTracker Red for the final hour
Description: To determine deacidification of the lysosome, cells were incubated with LysoTracker Red, a dye that localizes to the lysosome based on the […] of the compartment. If the lysosome is no longer acidic, there is a loss in the amount of LysoTracker Red staining. Lysosomal inhibition was further determined by immunofluorescence of lysosome-associated membrane protein-1 (LAMP1). If the lysosome is inhibited, lysosomal turnover should decrease and an increase in the amount of LAMP1 staining would be apparent. U2OS cells were treated with Example 7 or Example 26 at 3 μM for 3 hours, supplementing LysoTracker Red for the final hour.
Using image analysis software, the mean intensities of both the LAMP1 and LysoTracker Red staining were measured and represent altered intensity level between treatments on intensity plots. Individual points were measured using a line scan on the image analysis software, which measures the intensity across the path of a line at any given point. Not only does the presence of LAMP1 positive membranes increases, but the intensity in LAMP1 staining also increases with Example 7 and Example 26 treatment. The inverse relationship in intensity holds true for LysoTracker Red staining.
U2OS cells were seeded at 5×10^4 cells per well in 5A McCoy's with 10% FBS on number 1.5 coverglass discs in 24-well tissue culture dishes. After 24 hours, cells were treated with 3 μM CQ, QN, VATG-027, or VATG-032 for three hours. An hour prior to fixation, media was supplemented with LysoTracker Red added at 100 nM (Invitrogen, L7528). Cells were washed with 1×PBS, fixed with 3.7% formaldehyde, permeabilized with 0.2% Triton-X 100, and blocked with 3% bovine serum albumin (BSA) in PBS. LAMP1 antibody (Santa Cruz, sc-18821) was added at 1:1000 for 16 hours at 4° C. followed by Alexa-Fluor-488-conjugated anti-mouse IgG (Invitrogen, A11008) 1:5000 for 1 hour at room temperature. Nuclei were stained with Hoechst 33342 (2 μg/mL). Coverglass discs were inverted onto a microscope slide using mounting gel. The microscope slides were imaged using a 60× oil-immersion objective on a Nikon Eclipse Ti fluorescent microscope. Intensity of the red and green channels were visualized using the intensity plot on the Nikon NIS Elements software (FIG. 13B). […] The RGB threshold of only the color […] indicating both LAMP1 and LysoTracker Red positivity was performed and data for analysis. The Mander's co-localization coefficient was produced from the Nikon NIS Elements software.
Next, the inventors sought to confirm the inhibition of lysosomal turnover induced by the compounds of the present invention, for example, those of Formula III, Formula III(a), Formula V, Formula V(a), Formula A, Formula A^1, Formula A^2, Formula A^3, or a pharmaceutically acceptable salt thereof, by evaluating the abundance of endogenous lysosomal protein, LAMP1. In addition, lysosome acidity was assessed by co-staining cells with LysoTracker Red, a dye that localizes to the lysosome based on the low pH. Cells were treated with 3 μM CQ, QN, Example 7, or Example 27 for 3 hours, with LysoTracker Red supplemented for the final hour. Following, cells were fixed and stained with endogenous LAMP1 antibodies and both LAMP1 and LysoTracker Red imaged. […] To quantify this phenotype, the co-localization of LAMP1 and LysoTracker Red was measured using image analysis software. […] In addition, Mander's colocalization coefficient (MCC) values were determined for each treatment (FIG. 13C). Not only does the presence of LAMP1-positive membranes increase, but the intensity of LAMP1 staining also increases with QN, Example 7, and Example 27 treatment (FIG. 13C).

[4] = UACC-3291 cell viability, CellTiter Glo, read-out: IC50
[5] = UACC-91 cell viability, CellTiter Glo, read-out: IC50

COc1ccc2nc3cc(Cl)ccc3c(NCCCCN3CCN(C)CC3)c2c1 [Example 7, 6-Chloro-2-methoxy-N-(4-(4-methylpiperazin-1-yl)butyl)acridin-9-amine]
IC50 [1, 4]: 0.8 µM
electron-opaque structures, consistent with lipid droplets (TEM) (U2OS cells): appearance of several electron-opaque structures
size and number of electron-lucent and electron-dense vesicles (TEM) (U2OS cells): increase in both the size and number
IC50 [2, 5]: 0.5 µM
LAMP1 staining [3]: substantial increases
LysoTracker Red staining [3]: essentially ablated; also recorded: less intense; also recorded: essentially eliminated

CCN(CC)CCCC(C)Nc1c2ccc(Cl)cc2nc2ccc(OC)cc12 (centres unmarked) [Quinacrine, quinacrine, reference compound]
IC50 [1, 4]: 2 µM
size and number of electron-lucent and electron-dense vesicles (TEM) (U2OS cells): increase in both the size and number
IC50 [2, 5]: 2.9 µM
LAMP1 staining [3]: substantial increases
LysoTracker Red staining [3]: essentially eliminated

CN1CCN(CCNc2c3c(nc4cc(Cl)ccc24)CCCC3)CC1 [Example 27, 6-Chloro-N-(2-(4-methylpiperazin-1-yl)ethyl)-1,2,3,4-tetrahydroacridin-9-amine]
IC50 [1]: 25.3 µM
electron-opaque structures, consistent with lipid droplets (TEM) (U2OS cells): appearance of several electron-opaque structures
size and number of electron-lucent and electron-dense vesicles (TEM) (U2OS cells): increase in both the size and number
IC50 [2]: 22.2 µM
LAMP1 staining [3]: substantial increases
LysoTracker Red staining [3]: essentially ablated; also recorded: essentially eliminated
